The data set in a line: gradient 5% acetonitrile 3 min, to 50% in 2 min, to 85% in 15 min, held 3 min, 100 µL/min. The conditions noted are these: column: Zorbax Extend-C18 2.1 x 50 mm; eluents: water / acetonitrile, 0.1% formic acid. The method in brief:
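Pure standards were analyzed in mixtures of ~100 molecules using HPLC coupled to a quadrupole time-of-flight mass spectrometer, in both positive and negative ionization mode. Separation used a Zorbax Extend-C18 column (2.1 × 50 mm, 1.8 μm) at 100 μL/min, with water and acetonitrile each containing 0.1% formic acid. Dead and dwell volumes were 40 μL and 900 μL, and data were collected over 3 months. Retention time was read from computationally picked adduct peaks, each inspected manually.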
With `O=C(NCCN1CCOCC1)c1csc(-c2ccc(N3CCCC3)nc2)n1`, the RP-LC retention time worked out at 542 s.
Then `Cc1ccc(-c2nc3ncccn3c2NCc2ccc(F)cc2)cc1`, with 755 s.
Next, `O=C(CSc1nnc2ccc3ccccc3n12)c1ccc(Cl)cc1`: 875 s.
Regarding `CC1=NS(=O)(=O)N(C)C=C1C(=O)OCc1c(F)cccc1Cl`, the RP-LC retention time stood at 968 s.
Then `Nc1nc(Nc2ccccc2)n[nH]1`, with 637 s; and `CCN(CC)C(=O)c1ccc2nc(-c3ccc(C)cc3)cn2c1`, with 649 s; and `Cc1ccc(NS(=O)(=O)c2ccc(-c3nnc(C4CCC4)o3)o2)c(F)c1`, with 925 s.
Next, `CCc1cc(=O)n(CC(=O)Nc2ccc(Br)cc2)c(N2CCOCC2)n1`: 829 s; `COc1ccc(OC)c2nc3c(C(=O)NCCN(C)C)cccc3nc12`: 595 s.
Then `Cc1cc(S(=O)(=O)[C@H]2CS(=O)(=O)C[C@@H]2N2CCN(c3ccccc3F)CC2)ccc1F`, with 1040 s; and `COc1cc(O)cc(O)c1C(=O)/C=C/c1ccccc1`, with 903 s.
Turning to `Cc1cccc2nnc(N3CCN(C(=O)c4ccncc4)CC3)n12`, the RP-LC retention time stood at 551 s.
Then `CCOC(=O)c1cnc2c(-c3ccc(Cl)cc3)c(COC)nn2c1N`, with 1150 s; and `CCNC(=O)C1CCCN(c2nc3ncn(CC(=O)Nc4ccc(F)cc4F)c(=O)c3s2)C1` (centres undefined), with 670 s; and `Cc1ccc(N2N=C(C(=O)NCC3CCCO3)S(=O)(=O)c3cc(F)ccc32)cc1` (centres undefined), with 877 s.
Then `Cc1cccc(NS(=O)(=O)c2ccc(-c3c(C)noc3C)cc2)c1C`, with 997 s; and `Cc1ccc(OCC(=O)Nc2nnc(C3CC(=O)N(c4ccc(Cl)cc4)C3)o2)cc1` (centres undefined), with 788 s; and `CC1CCc2nc3ncn(CC(=O)NCCc4ccc(Cl)cc4)c(=O)c3cc2C1` (centres undefined), with 756 s.
Then `COc1cc(-c2noc(CN3C(=O)COc4ccc(C)cc43)n2)cc(OC)c1OC`, with 985 s; and `Cc1cc(C)cc(NC(=O)N2CCCC(C)(C(=O)NCc3ccccc3C)C2)c1` (centres undefined), with 897 s.
`Cc1ccsc1CN1CCN(c2cnn3cnnc3c2)CC1` registered an RP-LC retention time of 547 s.
In turn, `CNC(=O)[C@@H]1CN(C(=O)CCc2cc(OC)no2)C[C@H]1c1n[nH]c(C)n1` registered an RP-LC retention time of 553 s.
In the case of `CCOc1ccc(NC(=O)Nc2nccn(-c3ccc(OC)cc3)c2=O)cc1`, the RP-LC retention time turned out to be 935 s.
Turning to `O=S(=O)(Cc1ccccc1)N1CCC(c2noc(COCc3ccccc3)n2)CC1`, the RP-LC retention time was 1060 s.
Next, `COc1ccccc1-c1noc(CN2C(=O)COc3ccccc32)n1`: 880 s; `CCOC(=O)c1c(C)[nH]c(C(=O)N2CCCC(C(=O)NCc3ccccc3F)C2)c1C` (centres undefined): 790 s.
As for `O=C(c1cc(F)ccc1Cl)N1CCN(c2cc(-c3ccc(F)cc3)[nH]n2)CC1`, the RP-LC retention time was determined as 847 s.
Then `CCOc1cccc(-c2noc(Cn3nc(-c4ccc(F)cc4)ccc3=O)n2)c1`, with 1060 s; and `Cc1ccc(NC(=O)C2CCN(S(=O)(=O)c3cc(C(=O)N(C)C)cs3)CC2)cc1Cl`, with 912 s.
Then `CCCC(NC(=O)Cc1cccc(OC)c1)C(=O)Nc1nc2ccccc2[nH]1` (centres undefined), with 700 s.
For `N#Cc1ccc(C(=O)Nc2cnn(-c3ncc(N4CCCC4)cn3)c2)cc1`, the RP-LC retention time came to 798 s.
`O=C(CCc1c(-c2ccc(Cl)cc2)nc2ccccn12)NCc1ccc2c(c1)OCO2` displayed an RP-LC retention time of 654 s.
Then `CN(CCNC(=O)c1cc(S(=O)(=O)N2CCCCC2)ccc1Cl)Cc1ccccc1`, with 711 s; and `CCc1cc(C2CCCN2C(=O)Nc2cccc(Cl)c2)on1` (centres undefined), with 924 s; and `CCOc1ccc(CC(=O)N2CCCn3nc(-c4ccc(Cl)cc4)cc3C2)cc1`, with 1020 s.
Then `CCc1nc(-c2csc(S(=O)(=O)N3CCCC(C(=O)Nc4c(C)cc(C)cc4C)C3)c2)no1` (centres undefined), with 1210 s; and `COc1ccc(-n2ncc3c(=O)n(Cc4nc(-c5ccccc5)no4)cnc32)cc1`, with 961 s.
For `COC(=O)c1cc2c(=O)n(-c3nc(-c4ccc(Cl)cc4)cs3)ccc2nc1C`, the RP-LC retention time turned out to be 1420 s.
Next, `Cc1noc(-c2ccnc(-n3cnc(C(=O)NCc4ccccc4)c3)c2)n1`: 806 s; `CCOc1ccc(S(=O)(=O)NC2CCN(c3ccc(=O)[nH]n3)C2)cc1` (centres undefined): 671 s; `O=C(NC1CC1)c1cc2cc(Cl)ccc2[nH]1`: 809 s.
Next, `COc1ccc(C(=O)Nc2c(C(=O)Nc3ccccc3OC)oc3cccnc23)cc1`: 783 s; `CCCCc1ccc(N2C=C(C#N)S(=O)(=O)c3ccccc32)cc1`: 1150 s.
The molecule `COc1cc(Nc2nc(-c3nnn(-c4cc(Cl)ccc4OC)c3C)ns2)cc(OC)c1` came in with an RP-LC retention time of 1070 s.
Then `O=C(NCc1ccco1)C1CCCN(c2nnc3c(Cl)cccn23)C1` (centres undefined), with 627 s.
Next, `CCc1nc(-c2csc(S(=O)(=O)N3CCC(C(=O)Nc4ccc(C)cc4Cl)CC3)c2)no1`: 1080 s.
In the case of `O=C1CCCC(=O)N1CCS(=O)(=O)NCc1cccc(Oc2ccc(F)cc2)c1`, the RP-LC retention time was found to be 840 s.
Then `COCCN1C(=O)Cc2ccccc2C1C(=O)NCc1ccccc1Cl` (centres undefined), with 775 s; and `O=C(c1ccoc1)N1CCCn2cc(-c3ccccc3F)nc21`, with 649 s; and `CCOC(=O)N1CCC(NS(=O)(=O)CCCOc2ccc(F)cc2)CC1`, with 758 s.
For `COc1cccc(-n2ccn3cc(-c4ccc(Br)cc4)nc3c2=O)c1`, the RP-LC retention time turned out to be 893 s.
Then `O=C(Nc1ccc2c(c1)OCO2)C1CCN(S(=O)(=O)c2cc(C(=O)N3CCCC3)cs2)CC1`, with 770 s; and `Cc1oc(-c2cccc(Cl)c2)nc1CN(c1ccccc1)S(=O)(=O)c1cccs1`, with 1260 s.
Next, `O=C(NCc1csc(C2CCN(C(=O)c3c(F)cccc3F)CC2)n1)C1CCC1`: 740 s; `CC(C)CCSc1nnc2c(S(=O)(=O)N3CCOCC3)cccn12`: 810 s.
Next, `COc1nccnc1N1CCC(NC(=O)COc2ccc(F)cc2)C1` (centres undefined): 726 s; `CCS(=O)(=O)N1CCCN(C2=NS(=O)(=O)C(c3ccccc3)=C2C)CC1`: 751 s; `COc1ccc(CCC(=O)NC(CC(C)C)C(=O)Nc2nc3ccccc3[nH]2)cc1` (centres undefined): 745 s.
`Cn1c(=O)c(N2CCCC(C(=O)NCCc3c[nH]c4ccc(Cl)cc34)C2)nc2ccccc21` (centres undefined) came in with an RP-LC retention time of 960 s.
Next, `Fc1cccc(/C=N/N=C/c2cccc(F)c2)c1`: 1290 s.
Then `Cc1ccnc(NC(=O)C2CCN(S(=O)(=O)c3c(C)nn(CC(=O)N4CCCC4)c3C)CC2)c1`, with 619 s; and `O=C(NC1CC1)C1CCCN(c2ccc(Sc3ccc(Br)cc3)nn2)C1` (centres undefined), with 785 s; and `COc1ccccc1CNc1ncnc2c1CCC2`, with 621 s.
Then `CCCNC(=O)C1CCN(c2ccc(SCC(=O)NCc3cc(F)cc(F)c3)nn2)CC1`, with 626 s; and `Cc1nc(C)c(C(=O)N2CC(n3cc(COc4ccc(F)cc4)nn3)C2)s1`, with 729 s.
With `Cc1ccccc1-n1c(=O)c2sccc2n(Cc2nc(-c3cccc(C(F)(F)F)c3)no2)c1=O`, the RP-LC retention time is 1100 s.
As for `COc1ccc(C2C(C(=O)NCCC(C)C)c3cc(OC)c(OC)cc3C(=O)N2C)cc1` (centres undefined), the RP-LC retention time was 804 s.
Then `Cc1ccc(F)cc1NS(=O)(=O)c1cc2c(s1)CCN(C(=O)C1CCC1)C2`, with 877 s.
Next, `COCCCN(C(=O)c1ccccc1)C(C)C(=O)c1c(C)[nH]c(C(=O)OC)c1C` (centres undefined): 736 s.
Then `O=C(Cc1cccc(C(F)(F)F)c1)Nc1cccn2ncnc12`, with 837 s; and `CCc1nn2c(CNS(=O)(=O)c3ccc(C)cc3C)c(-c3ccccc3)nc2s1`, with 1020 s; and `Cc1cccc(-c2c3c(=O)n(C)c(=O)n(C)c3c3n2CCOC3c2ccco2)c1` (centres undefined), with 934 s.
With `COc1ccc(Cl)cc1NS(=O)(=O)c1cc2n(c1)CCN(CC(C)C)C2=O`, the RP-LC retention time was 868 s.
Molecule `O=C(c1ccc(F)cc1F)N1CCN(c2cc(-c3ccc(Cl)cc3)[nH]n2)CC1` gave an RP-LC retention time of 894 s.
Then `Cc1ccc(CNC(=O)N2CCN(C(=O)N3C[C@H]4C[C@@H](C3)[C@H]3CCCC(=O)N3C4)CC2)cc1`, with 677 s.
Next, `Cc1sc(NC(=O)c2cccc(F)c2)nc1-c1ccccc1`: 1150 s; `COc1cccc(-c2ccc(NC(=O)C3=C(C(=O)O)CCC3)c(F)c2)c1`: 1080 s; `Cc1cc(C)n2nc(SCC(=O)Nc3ccccc3C(F)(F)F)nc2n1`: 753 s.
Then `CC(=O)N1CCC(C(=O)NCc2nn(Cc3ccccc3)c3ccccc23)CC1`, with 728 s.

For the origin of these results see the METLIN SMRT retention time set (Domingo-Almenara et al. 2019).
